For assay [1], the target named is T1, EA-activated TRPC4 (Mus musculus, UniProt Q9QUQ5).
T1 construct: expressed in transfected cells; host or cells: HEK293-mTRPC4β-YFP
T1 sequence (Q9QUQ5 1-890 isoform Q9QUQ5-2): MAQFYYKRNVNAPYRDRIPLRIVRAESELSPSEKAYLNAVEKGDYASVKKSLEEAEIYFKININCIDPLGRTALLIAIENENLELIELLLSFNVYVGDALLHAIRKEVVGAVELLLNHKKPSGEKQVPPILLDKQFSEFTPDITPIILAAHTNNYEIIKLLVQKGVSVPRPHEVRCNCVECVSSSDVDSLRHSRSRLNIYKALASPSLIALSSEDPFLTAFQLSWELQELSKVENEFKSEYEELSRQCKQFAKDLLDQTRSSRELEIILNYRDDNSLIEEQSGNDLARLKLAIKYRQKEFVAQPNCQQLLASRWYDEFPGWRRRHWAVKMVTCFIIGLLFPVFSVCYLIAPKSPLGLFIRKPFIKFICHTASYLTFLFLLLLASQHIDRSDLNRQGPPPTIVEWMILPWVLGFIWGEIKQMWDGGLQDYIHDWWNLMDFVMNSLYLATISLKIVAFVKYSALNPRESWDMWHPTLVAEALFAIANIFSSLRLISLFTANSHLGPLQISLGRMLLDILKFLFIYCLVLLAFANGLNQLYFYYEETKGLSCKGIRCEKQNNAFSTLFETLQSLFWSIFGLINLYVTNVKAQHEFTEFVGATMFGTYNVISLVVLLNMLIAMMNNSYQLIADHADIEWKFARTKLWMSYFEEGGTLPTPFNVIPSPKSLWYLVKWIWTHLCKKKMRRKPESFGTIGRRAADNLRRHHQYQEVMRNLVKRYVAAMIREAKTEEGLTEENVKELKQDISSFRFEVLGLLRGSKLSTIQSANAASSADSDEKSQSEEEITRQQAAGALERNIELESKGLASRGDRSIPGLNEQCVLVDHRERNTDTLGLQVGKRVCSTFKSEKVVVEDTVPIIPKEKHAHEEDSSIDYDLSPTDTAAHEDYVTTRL
Description: FLIPR Ca2+ assay, E isomers silencing EA-activated TRPC4 (HEK293-mTRPC4β-YFP). The format is cell-based. The text has this:
(2) The EC50 values are reported as the midpoints of unconstrained sigmoidal fits to the FLIPR data (Fig 1l and Supplementary Fig. 2): with different levels of channel activation / blocking and very different Hill slopes across different compounds, isomers, and the two channels. This argues that the midpoint values only capture one of the several important factors describing the […]
We believe that it is possible to derive indicative relative values for binding affinity comparing the E and Z isomers of the same compound using only the combination of FLIPR and ephys data as reported in this paper; this analysis is being developed in a separate paper (see also below).
Supplementary Table 1. Potencies on TRPC4/5 depicted as either simple agonistic potency (blue) or else inhibitory […]
. Z*-values refer to mostly-Z-isomer reached at PSS at 365 nm, E*-values refer to experiments that initially applied 100% E-isomer (thermally relaxed), though in both cases the Ca2+ imaging in FLIPR with Fluo4-AM uses 470 nm excitation, which may over time promote photoswitching towards a PSS that is intermediate between those of pure-365 nm and all-E; this is controlled for in the more reliable ephys measurements). (Table indices: a, data from ref7; b, data from ref2; c, data from ref3; d, data from ref8.) EC50 [nM] (for simple agonism or EA-competitive inhibition)
E-AzPico 90 (vs 30 nM EA) 67 (vs 30 nM EA) […]
orange: inhibitory effect ag.: agonistic effect
1.1.1 From always-active antagonists and agonists towards efficacy photoswitches […]
photoisomerising an azobenzene that is merged in at the C’4 position yielding the compounds […]
deliver (Fig. 1-2) is a powerful support for an efficacy switch interpretation. To indirectly support this further, we also measured the effects of E-AzPico and E-AzHC against EA-activated TRPC4/5. […]
to be an EA-competitive binder5,9,10), so their efficacy as single agent photoswitches results from E/Z-competitive binding that is determined by their PSS. […]
Supplementary Table 2. […] (a Inhibitory effect measured against 30 nM EA; b Inhibitory effect measured against 50 nM EA). […]

The test system of assay [2] is TRPC5. Conditions: ag. = agonistic effect; read-out: EC50 [nM] simple agonism, TRPC5; cited from earlier work.
Assay [3] concerns the target T2, heteromeric TRPC5:TRPC1 (Homo sapiens, UniProt Q9UL62).
T2 construct: expressed in transfected cells; host or cells: HEK293, transiently transfected
On the set-up: method as in earlier work. Conditions: supplement cites it as ref 8; cited from earlier work.

The source of these data is publication PMC12858405, “Ideal efficacy photoswitching for chromocontrol of TRPC4/5 channel functions in live tissues” (Nature Chemical Biology, 2026).

T2 sequence (Q9UL62 whole entry): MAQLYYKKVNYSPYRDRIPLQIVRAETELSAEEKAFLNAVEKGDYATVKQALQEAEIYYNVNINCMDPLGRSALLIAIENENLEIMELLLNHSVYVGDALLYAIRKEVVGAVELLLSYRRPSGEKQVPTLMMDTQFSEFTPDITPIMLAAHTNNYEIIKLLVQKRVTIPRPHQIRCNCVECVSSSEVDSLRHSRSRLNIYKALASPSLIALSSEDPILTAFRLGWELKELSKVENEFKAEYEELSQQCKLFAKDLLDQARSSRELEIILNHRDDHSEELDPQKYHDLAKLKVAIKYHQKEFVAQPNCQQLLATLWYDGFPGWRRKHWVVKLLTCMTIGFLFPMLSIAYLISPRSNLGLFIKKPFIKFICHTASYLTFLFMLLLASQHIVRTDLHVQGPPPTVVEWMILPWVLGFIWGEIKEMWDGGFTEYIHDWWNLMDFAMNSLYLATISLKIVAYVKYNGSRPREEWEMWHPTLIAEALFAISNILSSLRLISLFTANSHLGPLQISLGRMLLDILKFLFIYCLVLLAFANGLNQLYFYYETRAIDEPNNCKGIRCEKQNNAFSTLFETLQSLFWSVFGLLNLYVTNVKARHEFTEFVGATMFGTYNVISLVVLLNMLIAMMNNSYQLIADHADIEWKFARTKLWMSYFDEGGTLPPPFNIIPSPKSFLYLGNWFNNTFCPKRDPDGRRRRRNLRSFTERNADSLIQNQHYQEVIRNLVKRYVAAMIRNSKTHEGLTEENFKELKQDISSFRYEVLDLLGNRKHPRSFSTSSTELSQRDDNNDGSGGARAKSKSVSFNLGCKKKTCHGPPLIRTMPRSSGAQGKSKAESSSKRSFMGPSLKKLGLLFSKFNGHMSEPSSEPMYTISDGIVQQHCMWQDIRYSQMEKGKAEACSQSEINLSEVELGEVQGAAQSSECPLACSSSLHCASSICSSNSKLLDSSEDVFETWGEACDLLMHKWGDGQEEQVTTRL
T2 sequence (P48995 whole entry partner): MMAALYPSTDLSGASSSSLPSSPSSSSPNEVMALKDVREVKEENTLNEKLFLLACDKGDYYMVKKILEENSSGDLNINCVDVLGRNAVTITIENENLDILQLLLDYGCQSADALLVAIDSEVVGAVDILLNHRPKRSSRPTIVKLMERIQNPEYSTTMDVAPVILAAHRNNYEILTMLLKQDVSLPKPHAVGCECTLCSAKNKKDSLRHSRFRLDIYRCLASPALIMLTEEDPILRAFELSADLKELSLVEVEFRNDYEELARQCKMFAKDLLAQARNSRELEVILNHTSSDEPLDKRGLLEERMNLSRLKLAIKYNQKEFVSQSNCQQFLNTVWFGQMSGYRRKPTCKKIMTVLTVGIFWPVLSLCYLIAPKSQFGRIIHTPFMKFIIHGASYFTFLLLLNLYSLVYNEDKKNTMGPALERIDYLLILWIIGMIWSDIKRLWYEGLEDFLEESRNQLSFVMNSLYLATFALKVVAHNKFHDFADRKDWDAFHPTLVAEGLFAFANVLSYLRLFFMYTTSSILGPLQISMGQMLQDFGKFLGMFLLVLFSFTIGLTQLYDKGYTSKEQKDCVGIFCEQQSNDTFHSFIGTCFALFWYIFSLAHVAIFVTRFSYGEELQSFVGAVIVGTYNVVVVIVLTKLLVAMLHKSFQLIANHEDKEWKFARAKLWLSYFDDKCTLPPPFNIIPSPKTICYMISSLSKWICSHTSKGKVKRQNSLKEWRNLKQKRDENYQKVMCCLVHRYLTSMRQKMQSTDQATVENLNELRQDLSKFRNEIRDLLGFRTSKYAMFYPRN

`Cn1c(=O)n(CCCO)c(=O)c2c1nc(Oc1ccc(/N=N/c3ccccc3)c(OC(F)(F)F)c1)n2Cc1ccc(Cl)cc1` [E-AzPico]: the IC50 was 90 nM in assay [1] (Inhibitory IC50 (versus 30 nM EA) TRPC4, E isomer, thermally relaxed, 30 nM EA) and 86 nM in assay [1] (Inhibitory IC50 (versus 50 nM EA) TRPC4, E isomer, 50 nM EA).

For the compound `Cn1c(=O)n(CCCO)c(=O)c2c1nc(Oc1ccc(Cl)c(OC(F)(F)F)c1)n2Cc1ccc(Cl)cc1` [AM237, reference compound], the EC50 in assay [2] is 20 nM. For the same compound, the “Activation of heteromeric TRPC1:TRPC5” value in assay [3] is on record as “does not activate”.

What is called IC50 is the concentration at which inhibition is half-maximal. A word on the EC50: it is the concentration needed to bring the measured effect to its halfway point.
